Data on nine compounds can be found in PubChem BioAssay AID344 (DTP/NCI, 2004).

The experiment deals with mice, LPC-1 plasma cell tumor ip, median survival T/C. Put plainly: NCI In Vivo Anticancer Drug Screen. Data for tumor model Lieberman Plasma Cell No. 1 (LPC-1) (intraperitoneal) in unknown mice. As to conditions: endpoint: median survival time, higher = longer survival. The procedure: The antitumor activity of compounds was measured in mice bearing transplantable tumors. Survival or tumor size were measured and the results are expressed as the measurement made in the treated group (T) divided by the measurement made in the vehicle treated control group (C). The tumor model used in this assay is Lieberman Plasma Cell No. 1 (LPC-1) (intraperitoneal) in unknown mice

Setting [1] is: dose: 14.0 mg/kg/injection, schedule: Q01DX028 (sc), vehicle: saline.

Values joined by “and” are separate entries in the source; they are usually repeats but may differ in a detail not shown here. Identical values can stand only once. Inconclusive results and toxic doses are left out.

Regarding `CN(N=O)C(N)=O`, the T/C (dose: 8.4 mg/kg/injection, schedule: Q01DX028 (sc), vehicle: saline) was 114 % of control; the T/C under setting [1] is 150 % of control; the T/C (dose: 39.0 mg/kg/injection, schedule: Q01DX028 (sc), vehicle: saline) is 116 % of control; the T/C (dose: 65.0 mg/kg/injection, schedule: Q01DX028 (sc), vehicle: saline) is 100 % of control.
Consider `NC(CSC(c1ccccc1)(c1ccccc1)c1ccccc1)C(=O)O` (stereo not given), for which the T/C was 102 % of control (dose: 7.5 mg/kg/injection, schedule: Q01DX028 (sc), vehicle: saline); 105 % of control (dose: 15.0 mg/kg/injection, schedule: Q01DX028 (sc), vehicle: saline); 105 % of control (dose: 60.0 mg/kg/injection, schedule: Q01DX028 (sc), vehicle: saline).
`CS(=O)(=O)OCCN(CCOS(C)(=O)=O)c1ccc(C=O)cc1`: the T/C is 160 % of control (dose: 3.0 mg/kg/injection, schedule: Q01DX028 (sc), vehicle: saline); 166 % of control and 192 % of control (dose: 5.0 mg/kg/injection, schedule: Q01DX028 (sc), vehicle: saline); 226 % of control (dose: 8.3 mg/kg/injection, schedule: Q01DX028 (sc), vehicle: saline); 202 % of control (dose: 10.0 mg/kg/injection, schedule: Q01DX028 (sc), vehicle: saline); 250 % of control under setting [1]; 261 % of control (dose: 20.0 mg/kg/injection, schedule: Q01DX028 (sc), vehicle: saline). In addition, the T/C (dose: 40.0 mg/kg/injection, schedule: Q01DX028 (sc), vehicle: saline) is 122 % of control.
For the compound `O=c1ccc2cc(O)c(O)cc2o1`, the T/C was 119 % of control (dose: 31.0 mg/kg/injection, schedule: Q01DX028 (sc), vehicle: steriod suspending solution) and 115 % of control (dose: 62.0 mg/kg/injection, schedule: Q01DX028 (sc), vehicle: steriod suspending solution).
Take `CCOC(=O)C(Cc1ccc(N(CCCl)CCCl)cc1)NC=O` (stereo not given): the T/C by setting is: (dose: 18.7 mg/kg/injection, schedule: Q01DX028 (sc), vehicle: carboxymethylcellulose (CMC)) 176 % of control; (dose: 75.0 mg/kg/injection, schedule: Q01DX028 (sc), vehicle: carboxymethylcellulose (CMC)) 184 % of control; (dose: 150.0 mg/kg/injection, schedule: Q01DX028 (sc), vehicle: carboxymethylcellulose (CMC)) 115 % of control; (dose: 300.0 mg/kg/injection, schedule: Q01DX028 (sc), vehicle: carboxymethylcellulose (CMC)) 92 % of control.
As to `CS(=O)(=O)OCCN(CCOS(C)(=O)=O)c1ccccc1`, the T/C runs as follows: (dose: 3.12 mg/kg/injection, schedule: Q01DX028 (sc), vehicle: carboxymethylcellulose (CMC)) 113 % of control; (dose: 6.25 mg/kg/injection, schedule: Q01DX028 (sc), vehicle: carboxymethylcellulose (CMC)) 161 % of control; (dose: 12.5 mg/kg/injection, schedule: Q01DX028 (sc), vehicle: carboxymethylcellulose (CMC)) 155 % of control; (dose: 15.0 mg/kg/injection, schedule: Q01DX028 (sc), vehicle: carboxymethylcellulose (CMC)) 184 % of control; (dose: 22.0 mg/kg/injection, schedule: Q01DX028 (sc), vehicle: carboxymethylcellulose (CMC)) 194 % of control; (dose: 25.0 mg/kg/injection, schedule: Q01DX028 (sc), vehicle: carboxymethylcellulose (CMC)) 105 % of control. Moreover, the T/C (dose: 33.0 mg/kg/injection, schedule: Q01DX028 (sc), vehicle: carboxymethylcellulose (CMC)) was 110 % of control.
Take `O=c1ccc2cc(OC3OC(CO)C(O)C(O)C3O)c(O)cc2o1` (stereo not given): the T/C is, setting by setting: (dose: 400.0 mg/kg/injection, schedule: Q01DX028 (sc), vehicle: carboxymethylcellulose (CMC)) 100 % of control; (dose: 600.0 mg/kg/injection, schedule: Q01DX028 (sc), vehicle: carboxymethylcellulose (CMC)) 100 % of control; (dose: 900.0 mg/kg/injection, schedule: Q01DX028 (sc), vehicle: carboxymethylcellulose (CMC)) 97 % of control.
For `COC(=O)c1nc(-c2ccc3c(n2)C(=O)C(N)=C(OC)C3=O)c(N)c(-c2ccc(OC)c(OC)c2O)c1C`, the T/C by setting is: (dose: 0.39 mg/kg/injection, schedule: Q01DX028 (sc), vehicle: other) 100 % of control; (dose: 0.65 mg/kg/injection, schedule: Q01DX028 (sc), vehicle: other) 100 % of control; (dose: 1.08 mg/kg/injection, schedule: Q01DX028 (sc), vehicle: other) 100 % of control; (dose: 1.8 mg/kg/injection, schedule: Q01DX028 (sc), vehicle: other) 100 % of control; (dose: 3.0 mg/kg/injection, schedule: Q01DX028 (sc), vehicle: other) 100 % of control; (dose: 5.0 mg/kg/injection, schedule: Q01DX028 (sc), vehicle: other) 102 % of control.
As to `CN[C@H]1CCc2cc(OC)c(OC)c(OC)c2-c2ccc(OC)c(=O)cc21`, the T/C (dose: 0.62 mg/kg/injection, schedule: Q01DX015 (sc), vehicle: saline) was 102 % of control; the T/C (dose: 1.25 mg/kg/injection, schedule: Q01DX015 (sc), vehicle: saline) is 102 % of control; the T/C (dose: 1.25 mg/kg/injection, schedule: Q01DX028 (sc), vehicle: saline) is 107 % of control; the T/C (dose: 2.5 mg/kg/injection, schedule: Q01DX028 (sc), vehicle: saline) was 107 % of control.
